Test results: patent US20120165331A1, “Di/tri-aza-spiro-C9-C11alkanes” (priority 2010, published 2012)

What was measured:
[1] = target: T1, human orexin 2 receptor (Homo sapiens, UniProt O43614); assay: Calcium accumulation in cells (FLIPR), antagonism of orexin A, human orexin 2 receptor; type: cell-based; settings: for Ki: calcium accumulation, antagonism of orexin A, Cheng-Prusoff corrected, read-out: FLIPR hOx2R Ki; for inhibition at 10 µM: measured at a concentration of 10 μM of compound, read-out: FLIPR hOx2R % inhibition
T1 construct: expressed in transfected cells
T1 sequence (O43614 1-444): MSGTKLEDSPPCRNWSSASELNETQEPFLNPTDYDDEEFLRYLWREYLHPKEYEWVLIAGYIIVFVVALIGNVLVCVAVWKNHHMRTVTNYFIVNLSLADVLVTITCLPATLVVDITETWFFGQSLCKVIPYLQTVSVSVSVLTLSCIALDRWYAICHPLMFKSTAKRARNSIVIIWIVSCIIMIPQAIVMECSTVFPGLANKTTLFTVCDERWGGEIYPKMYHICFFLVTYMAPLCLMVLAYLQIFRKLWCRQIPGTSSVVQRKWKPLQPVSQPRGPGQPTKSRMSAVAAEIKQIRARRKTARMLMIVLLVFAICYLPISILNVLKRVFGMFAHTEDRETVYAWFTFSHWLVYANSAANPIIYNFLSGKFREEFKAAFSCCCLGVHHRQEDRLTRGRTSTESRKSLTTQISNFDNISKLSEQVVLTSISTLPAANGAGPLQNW

[2] = target: T2, human orexin 1 receptor (Homo sapiens, UniProt O43613); assay: Calcium accumulation in cells (FLIPR), antagonism of orexin A, human orexin 1 receptor; type: cell-based; settings: for Ki: calcium accumulation, antagonism of orexin A, Cheng-Prusoff corrected, read-out: FLIPR hOx1R Ki; for inhibition at 10 µM: measured at a concentration of 10 μM of compound, read-out: FLIPR hOx1R % inhibition
T2 construct: expressed in transfected cells
T2 sequence (O43613 1-425): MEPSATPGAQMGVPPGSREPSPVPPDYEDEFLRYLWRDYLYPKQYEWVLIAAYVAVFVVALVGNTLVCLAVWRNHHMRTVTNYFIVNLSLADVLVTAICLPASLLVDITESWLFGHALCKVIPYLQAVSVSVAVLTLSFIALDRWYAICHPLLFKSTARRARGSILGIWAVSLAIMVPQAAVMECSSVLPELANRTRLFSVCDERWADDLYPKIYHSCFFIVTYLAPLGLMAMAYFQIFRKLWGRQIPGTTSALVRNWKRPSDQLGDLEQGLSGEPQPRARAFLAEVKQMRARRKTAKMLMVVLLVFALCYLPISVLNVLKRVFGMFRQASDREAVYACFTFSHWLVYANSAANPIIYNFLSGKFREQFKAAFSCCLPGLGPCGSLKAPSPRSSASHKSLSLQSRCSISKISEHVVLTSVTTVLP

Row | SMILES | Ki [1] | Ki [2] | inhibition at 10 µM [2] | inhibition at 10 µM [1]
1 | O=C1N(Cc2c[nH]c3ccccc23)CCC12CCN(c1nc3ccccc3o1)CC2 [Example 3.13, 8-Benzooxazol-2-yl-2-(1H-indol-3-ylmethyl)-2,8-diaza-spiro[4.5]decan-1-one] | 342 nM | 342 nM | – | –
2 | COc1ccnc(N2CCC3(CCN(Cc4c[nH]c5ccccc45)C3=O)CC2)n1 [Example 3.14, 2-(1H-Indol-3-ylmethyl)-8-(4-methoxy-pyrimidin-2-yl)-2,8-diaza-spiro[4.5]decan-1-one] | 134 nM | 2770 nM | – | –
3 | COc1ccnc(N2CCC3(CCN(Cc4c[nH]c5ncccc45)C3=O)CC2)n1 [Example 3.15, 8-(4-Methoxy-pyrimidin-2-yl)-2-(1H-pyrrolo[2,3-b]pyridin-3-ylmethyl)-2,8-diaza-spiro[4.5]decan-1-one] | 637 nM | – | 26% | –
4 | COc1ccnc(N2CCC3(CCN(Cc4n[nH]c5ccccc45)C3=O)CC2)n1 [Example 3.16, 2-(1H-Indazol-3-ylmethyl)-8-(4-methoxy-pyrimidin-2-yl)-2,8-diaza-spiro[4.5]decan-1-one] | 673 nM | – | 39% | –
5 | COc1ccnc(N2CCC3(CCN(Cc4ccccc4-c4nc(C)no4)C3=O)CC2)n1 [Example 3.17, 8-(4-Methoxy-pyrimidin-2-yl)-2-[2-(3-methyl-[1,2,4]oxadiazol-5-yl)-benzyl]-2,8-diaza-spiro[4.5]decan-1-one] | 298 nM | – | 37% | –
6 | Cc1cc(C)nc(N2CCC3(CCN(Cc4ccccc4-c4nc(C)no4)C3=O)CC2)n1 [Example 3.19, 8-(4,6-Dimethyl-pyrimidin-2-yl)-2-[2-(3-methyl-[1,2,4]oxadiazol-5-yl)-benzyl]-2,8-diaza-spiro[4.5]decan-1-one] | 127 nM | – | 22% | –
7 | COc1cc(C)nc(N2CCC3(CCN(Cc4c[nH]c5ncccc45)C3=O)CC2)n1 [Example 3.22, 2-((1H-pyrrolo[2,3-b]pyridin-3-yl)methyl)-8-(4-methoxy-6-methylpyrimidin-2-yl)-2,8-diazaspiro[4.5]decan-1-one] | 246 nM | – | 24% | –
8 | Cc1cc(C)nc(N2CCC3(CCN(Cc4ccc5[nH]ccc5c4)C3=O)CC2)n1 [Example 3.23, 2-((1H-indol-5-yl)methyl)-8-(4,6-dimethylpyrimidin-2-yl)-2,8-diazaspiro[4.5]decan-1-one] | 2390 nM | – | 10% | –
9 | Cc1cc(C)nc(N2CCC3(CCN(Cc4nn(C)nc4-c4ccccc4)C3=O)CC2)n1 [Example 3.24, 8-(4,6-dimethylpyrimidin-2-yl)-2-((2-methyl-5-phenyl-2H-1,2,3-triazol-4-yl)methyl)-2,8-diazaspiro[4.5]decan-1-one] | 117 nM | – | 25% | –
10 | Cc1cc(C)nc(N2CCC3(CC2)NCN(Cc2c[nH]c4ccccc24)C3=O)n1 [Example 4.1, 3-((1H-indol-3-yl)methyl)-8-(4,6-dimethylpyrimidin-2-yl)-1,3,8-triazaspiro[4.5]decan-4-one] | 2120 nM | – | 12% | –
11 | COc1ccnc(N2CCC3(CCN(Cc4c[nH]c5ccccc45)C3=O)C2)n1 (centres unmarked) [Example 5.1, 2-((1H-indol-3-yl)methyl)-7-(4-methoxypyrimidin-2-yl)-2,7-diazaspiro[4.4]nonan-1-one] | 132 nM | 2140 nM | – | –
12 | COc1ccnc(N2CC[C@@]3(CCN(Cc4c[nH]c5ccccc45)C3=O)C2)n1 [Example 5.2, (R)-2-((1H-indol-3-yl)methyl)-7-(4-methoxypyrimidin-2-yl)-2,7-diazaspiro[4.4]nonan-1-one] | 1260 nM | – | 49% | –
13 | COc1ccnc(N2CC[C@]3(CCN(Cc4c[nH]c5ccccc45)C3=O)C2)n1 [Example 5.3, (S)-2-((1H-indol-3-yl)methyl)-7-(4-methoxypyrimidin-2-yl)-2,7-diazaspiro[4.4]nonan-1-one] | 103 nM | 2640 nM | – | –
14 | COc1cc(C)nc(N2CCC3(CCN(Cc4c[nH]c5ccccc45)C3=O)C2)n1 (centres unmarked) [Example 5.4, 2-((1H-indol-3-yl)methyl)-7-(4-methoxy-6-methylpyrimidin-2-yl)-2,7-diazaspiro[4.4]nonan-1-one] | 119 nM | 1050 nM | – | –
15 | O=C1N(Cc2c[nH]c3ccccc23)CCC12CCN(c1cnc3ccccc3n1)C2 (centres unmarked) [Example 5.5, 2-((1H-Indol-3-yl)methyl)-7-(quinoxalin-2-yl)-2,7-diazaspiro[4.4]nonan-1-one] | 430 nM | 1230 nM | – | –
16 | Cc1ccnc(N2CCC3(CCN(Cc4c[nH]c5ccccc45)C3=O)C2)n1 (centres unmarked) [Example 5.6, 2-((1H-Indol-3-yl)methyl)-7-(4-methylpyrimidin-2-yl)-2,7-diazaspiro[4.4]nonan-1-one] | 393 nM | – | 33% | –
17 | Cc1cc(C)nc(N2CCC3(CCN(Cc4c[nH]c5ccccc45)C3=O)C2)n1 (centres unmarked) [Example 5.7, 2-((1H-Indol-3-yl)methyl)-7-(4,6-dimethylpyrimidin-2-yl)-2,7-diazaspiro[4.4]nonan-1-one] | 249 nM | 2130 nM | – | –
18 | O=C1N(Cc2c[nH]c3ccccc23)CCC12CCN(c1nc3ccccc3o1)C2 (centres unmarked) [Example 5.8, 2-((1H-Indol-3-yl)methyl)-7-(benzo[d]oxazol-2-yl)-2,7-diazaspiro[4.4]nonan-1-one] | 304 nM | 739 nM | – | –
19 | Cc1cc(C)nc(N2CCC3(CCN(Cc4cccc5[nH]ccc45)C3=O)C2)n1 (centres unmarked) [Example 5.9, 2-((1H-Indol-4-yl)methyl)-7-(4,6-dimethylpyrimidin-2-yl)-2,7-diazaspiro[4.4]nonan-1-one] | 1290 nM | – | < 10% | –
20 | COc1cc(C)nc(N2CCC3(CCN(Cc4cccc5[nH]ccc45)C3=O)C2)n1 (centres unmarked) [Example 5.10, 2-((1H-Indol-4-yl)methyl)-7-(4-methoxy-6-methylpyrimidin-2-yl)-2,7-diazaspiro[4.4]nonan-1-one] | 629 nM | 1340 nM | – | –
21 | COc1ccnc(N2CCC3(CCN(Cc4c[nH]c5ncccc45)C3=O)C2)n1 (centres unmarked) [Example 5.11, 2-((1H-Pyrrolo[2,3-b]pyridin-3-yl)methyl)-7-(4-methoxypyrimidin-2-yl)-2,7-diazaspiro[4.4]nonan-1-one] | – | – | < 10% | 26%
22 | COc1ccnc(N2CCC3(CCN(Cc4n[nH]c5ccccc45)C3=O)C2)n1 (centres unmarked) [Example 5.12, 2-((1H-Indazol-3-yl)methyl)-7-(4-methoxypyrimidin-2-yl)-2,7-diazaspiro[4.4]nonan-1-one] | 711 nM | – | 40% | –
23 | COc1ccnc(N2CCC3(CCN(Cc4ccccc4-c4nc(C)no4)C3=O)C2)n1 (centres unmarked) [Example 5.13, 7-(4-Methoxypyrimidin-2-yl)-2-(2-(3-methyl-1,2,4-oxadiazol-5-yl)benzyl)-2,7-diazaspiro[4.4]nonan-1-one] | 673 nM | 4160 nM | – | –
24 | COc1cccc(-c2n[nH]nc2CN2CCC3(CCN(c4nccc(OC)n4)C3)C2=O)c1 (centres unmarked) [Example 5.14, 2-((5-(3-Methoxyphenyl)-2H-1,2,3-triazol-4-yl)methyl)-7-(4-methoxypyrimidin-2-yl)-2,7-diazaspiro[4.4]nonan-1-one] | 146 nM | 544 nM | – | –
25 | O=C1N(Cc2c[nH]c3ccccc23)CCC12CCN(c1nc3cc(Cl)ccc3o1)C2 (centres unmarked) [Example 5.15, 2-((1H-Indol-3-yl)methyl)-7-(5-chlorobenzo[d]oxazol-2-yl)-2,7-diazaspiro[4.4]nonan-1-one] | – | – | 29% | 37%
